Results taken from patent publication US11111245B2, “Derivatives of N-cycloalkyl/heterocycloalkyl-4-(imidazo[1,2-a]pyridine)pyrimidin-2-amine as therapeutic agents” (Aucentra Therapeutics Pty Ltd, priority 2017, dated 2021).

Columns and labels:
CDK4/D1 = CDK4/D1 (Homo sapiens, UniProt P11802); assay: ADP Glo Kinase assay CDK4/D1; type: biochemical; conditions: CDK4D1; for remaining activity at 10 µM: compound at 10 μM, read-out: residual activity (%) at 10 μM CDK4D1
How it was run: (§1)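 CDK4/D1 and CDK6/D3 were run in […] Tris pH 7.5, 20 mM MgCl2, 0.4 mM DTT, 0.1 mg/ml BSA with RB-CTF substrate; CDK9/T1 used RBER-IRStide. ATP-started reactions ran 40 min at 37° C, with ADP Glo luminescence read-out. IC50 came from 4-parameter fits; Ki from Km (ATP) and IC50.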

leukemia cell lines = assay: Resazurin cell viability assay on leukemia cell lines (72 h growth inhibition, GI50); type: cell-based; conditions: Homo sapiens, MV4-11 cells
How it was run: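 Solid tumour cells: MTT. Leukaemia cells: resazurin. GI50 fitted by non-linear regression.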

CDK6/D3 = CDK6/D3 (Homo sapiens, UniProt Q00534); assay: ADP Glo Kinase assay CDK6/D3; type: biochemical; conditions: CDK6D3; compound at 10 μM; read-out: residual activity (%) at 10 μM CDK6D3
How it was run: as §1

CDKs and other kinases [1] = biological target: T1, CDKs and other kinases (Homo sapiens, UniProt P50613); assay: Radiometric kinase assay (Eurofins Pharma Discovery or Reaction Biology Corporation Kinase Profiler); type: biochemical; conditions: CDK7H; for remaining activity at 10 µM: compound at 10 μM, read-out: residual activity (%) at 10 μM CDK7H; for Ki: read-out: CDK inhibition, Ki (μM) CDK7H
T1 construct: other: CDK7H; residual activity (%) at 10 μM CDK7H; compound at 10 μM
How it was run: (§2)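 Other CDKs and further kinases were profiled externally by radiometric assay. In-house ADP Glo assays covered CDK4/D1 and CDK6/D3 (RB-CTF substrate, pH 7.5 Tris buffer with MgCl2, DTT, BSA) and CDK9/T1 (RBER-IRStide substrate), 40 min at 37° C.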

CDKs and other kinases [2] = biological target: T2, CDKs and other kinases (Homo sapiens, UniProt P06493); assay: as above; type: biochemical; conditions: CDK1B; for remaining activity at 10 µM: compound at 10 μM, read-out: residual activity (%) at 10 μM CDK1B; for Ki: read-out: CDK inhibition, Ki (μM) CDK1B
T2 construct: other: CDK1B; residual activity (%) at 10 μM CDK1B; compound at 10 μM
How it was run: as §2

CDKs and other kinases [3] = biological target: T3, CDKs and other kinases (Homo sapiens, UniProt P24941); assay: as above; type: biochemical; conditions: CDK2A; for remaining activity at 10 µM: compound at 10 μM, read-out: residual activity (%) at 10 μM CDK2A; for Ki: read-out: CDK inhibition, Ki (μM) CDK2A
T3 construct: other: CDK2A; residual activity (%) at 10 μM CDK2A; compound at 10 μM
How it was run: as §2

CDK9/T1 = CDK9/T1 (Homo sapiens, UniProt P50750); assay: ADP Glo Kinase assay CDK9/T1; type: biochemical; conditions: CDK9T1; read-out: CDK inhibition, Ki (μM) CDK9T1
How it was run: as §1

Sequence of CDK9/T1 (P50750 whole entry): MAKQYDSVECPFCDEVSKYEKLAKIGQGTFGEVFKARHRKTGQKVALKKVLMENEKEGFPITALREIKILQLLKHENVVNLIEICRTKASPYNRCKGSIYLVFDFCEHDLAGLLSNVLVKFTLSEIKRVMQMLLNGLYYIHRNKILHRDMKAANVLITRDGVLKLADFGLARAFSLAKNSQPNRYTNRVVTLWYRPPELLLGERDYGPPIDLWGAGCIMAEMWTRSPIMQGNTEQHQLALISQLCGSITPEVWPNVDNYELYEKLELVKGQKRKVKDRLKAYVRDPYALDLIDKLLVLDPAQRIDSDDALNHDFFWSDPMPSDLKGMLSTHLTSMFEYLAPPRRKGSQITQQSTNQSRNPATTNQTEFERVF
Sequence of CDK9/T1 (O60563 whole entry partner): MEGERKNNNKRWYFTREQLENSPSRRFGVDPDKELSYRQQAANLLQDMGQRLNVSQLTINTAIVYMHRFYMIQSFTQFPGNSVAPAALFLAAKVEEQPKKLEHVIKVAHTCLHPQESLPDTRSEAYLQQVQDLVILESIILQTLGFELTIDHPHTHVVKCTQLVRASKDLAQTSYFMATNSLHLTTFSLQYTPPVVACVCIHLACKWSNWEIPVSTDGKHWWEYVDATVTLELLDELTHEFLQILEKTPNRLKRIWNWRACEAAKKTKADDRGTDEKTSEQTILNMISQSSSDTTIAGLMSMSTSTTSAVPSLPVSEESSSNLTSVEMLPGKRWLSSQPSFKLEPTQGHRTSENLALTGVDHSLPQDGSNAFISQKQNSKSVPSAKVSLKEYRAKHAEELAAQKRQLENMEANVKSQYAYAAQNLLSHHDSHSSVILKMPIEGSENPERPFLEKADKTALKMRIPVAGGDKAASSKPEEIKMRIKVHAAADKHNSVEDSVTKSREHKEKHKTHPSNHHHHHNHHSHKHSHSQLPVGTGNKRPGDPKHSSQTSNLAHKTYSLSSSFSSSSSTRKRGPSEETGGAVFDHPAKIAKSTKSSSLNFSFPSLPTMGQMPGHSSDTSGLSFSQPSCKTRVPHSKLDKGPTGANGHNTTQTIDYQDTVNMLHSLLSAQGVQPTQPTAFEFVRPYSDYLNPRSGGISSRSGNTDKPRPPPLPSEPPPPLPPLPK
Sequence of CDK6/D3 (Q00534 whole entry): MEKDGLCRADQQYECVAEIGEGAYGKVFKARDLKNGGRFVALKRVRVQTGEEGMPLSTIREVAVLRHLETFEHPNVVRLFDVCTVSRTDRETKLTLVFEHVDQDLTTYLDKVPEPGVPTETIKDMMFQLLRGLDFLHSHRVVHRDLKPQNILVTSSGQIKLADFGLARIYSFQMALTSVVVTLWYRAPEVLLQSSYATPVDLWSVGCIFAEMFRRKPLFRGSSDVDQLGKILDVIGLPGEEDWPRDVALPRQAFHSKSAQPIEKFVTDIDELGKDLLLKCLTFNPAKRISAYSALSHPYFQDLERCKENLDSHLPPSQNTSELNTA
Sequence of CDK6/D3 (P30281 whole entry partner): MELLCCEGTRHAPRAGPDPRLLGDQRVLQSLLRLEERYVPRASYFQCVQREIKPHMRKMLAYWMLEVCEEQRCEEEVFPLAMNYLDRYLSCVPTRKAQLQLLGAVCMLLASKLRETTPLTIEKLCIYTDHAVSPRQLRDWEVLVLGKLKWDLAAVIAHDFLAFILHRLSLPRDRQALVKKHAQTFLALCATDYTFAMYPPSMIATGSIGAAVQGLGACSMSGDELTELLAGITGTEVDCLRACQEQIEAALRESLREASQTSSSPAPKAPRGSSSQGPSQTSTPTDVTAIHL
T1 sequence (P50613 whole entry): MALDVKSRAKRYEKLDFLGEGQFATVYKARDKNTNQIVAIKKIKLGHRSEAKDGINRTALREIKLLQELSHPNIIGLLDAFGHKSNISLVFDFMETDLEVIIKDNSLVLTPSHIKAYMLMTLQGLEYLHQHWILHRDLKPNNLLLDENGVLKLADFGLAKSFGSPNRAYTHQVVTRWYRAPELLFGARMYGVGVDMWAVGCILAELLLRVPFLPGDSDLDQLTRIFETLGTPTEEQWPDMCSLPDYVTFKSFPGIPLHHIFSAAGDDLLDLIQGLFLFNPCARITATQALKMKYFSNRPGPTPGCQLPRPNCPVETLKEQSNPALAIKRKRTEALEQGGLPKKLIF
T2 sequence (P06493 whole entry): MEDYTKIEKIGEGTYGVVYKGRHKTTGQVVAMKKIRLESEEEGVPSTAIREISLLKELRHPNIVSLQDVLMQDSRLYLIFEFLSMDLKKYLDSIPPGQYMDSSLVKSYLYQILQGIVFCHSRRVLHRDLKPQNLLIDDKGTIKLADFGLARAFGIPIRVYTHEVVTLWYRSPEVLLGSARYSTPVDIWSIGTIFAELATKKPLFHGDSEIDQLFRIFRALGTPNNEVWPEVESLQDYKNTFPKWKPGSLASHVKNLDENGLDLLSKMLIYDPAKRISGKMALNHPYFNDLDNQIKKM
Sequence of CDK4/D1 (P11802 whole entry): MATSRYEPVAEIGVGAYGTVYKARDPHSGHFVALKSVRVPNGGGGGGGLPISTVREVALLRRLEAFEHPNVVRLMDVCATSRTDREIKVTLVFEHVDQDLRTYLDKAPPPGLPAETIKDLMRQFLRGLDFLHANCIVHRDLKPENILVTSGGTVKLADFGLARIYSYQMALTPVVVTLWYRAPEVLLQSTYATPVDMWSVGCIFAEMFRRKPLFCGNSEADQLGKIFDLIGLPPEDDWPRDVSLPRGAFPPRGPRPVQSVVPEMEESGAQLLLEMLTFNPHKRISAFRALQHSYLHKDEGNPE
Sequence of CDK4/D1 (P24385 whole entry partner): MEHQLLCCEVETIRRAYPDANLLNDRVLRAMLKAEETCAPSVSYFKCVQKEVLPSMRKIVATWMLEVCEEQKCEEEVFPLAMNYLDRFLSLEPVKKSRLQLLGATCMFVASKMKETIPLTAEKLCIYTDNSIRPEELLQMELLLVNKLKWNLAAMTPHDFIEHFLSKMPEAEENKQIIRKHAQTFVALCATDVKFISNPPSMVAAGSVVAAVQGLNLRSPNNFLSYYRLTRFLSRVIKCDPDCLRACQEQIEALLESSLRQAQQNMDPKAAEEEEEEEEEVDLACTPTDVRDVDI

SMILES	remaining activity at 10 µM (CDK4/D1)	GI50 (leukemia cell lines)	remaining activity at 10 µM (CDK6/D3)	remaining activity at 10 µM (CDKs and other kinases [1])	remaining activity at 10 µM (CDKs and other kinases [2])	remaining activity at 10 µM (CDKs and other kinases [3])	Ki (CDK9/T1)	Ki (CDKs and other kinases [1])	Ki (CDKs and other kinases [2])	Ki (CDKs and other kinases [3])	Ki (CDK4/D1; read-out: CDK inhibition, Ki (μM) CDK4D1)
Cc1cnc(N[C@H]2CC[C@H](N)CC2)nc1-c1cnc2ccc(NC(=O)Cc3ccccc3)cn12 [Compound 73, N-(3-(2-(((1r,4r)-4-Aminocyclohexyl)amino)-5-methylpyrimidin-4-yl)imidazo[1,2-a]pyridin-6-yl)-2-phenylacetamide]	53%	0.752 ± 0.055 µM	49%	63%	75%	62%	0.469 µM				
N[C@H]1CC[C@H](Nc2ncc(Cl)c(-c3cnc4ccc(C(F)(F)F)cn34)n2)CC1 [Compound 13, (1r,4r)-N^1-(5-Chloro-4-(6-(trifluoromethyl)imidazo[1,2-a]pyridin-3-yl)pyrimidin-2-yl)cyclohexane-1,4-diamine]	0%	0.022 ± 0.002 µM	59%				0.024 µM	0.052 µM	0.329 µM	0.063 µM	
CCOc1ccc(Nc2ccc3ncc(-c4nc(N[C@H]5CC[C@H](N)CC5)ncc4C)n3c2)cn1 [Compound 67, (1r,4r)-N^1-(4-(6-((6-Ethoxypyridin-3-yl)amino)imidazo [1,2-a]pyridin-3-yl)-5-methylpyrimidin-2-yl)cyclohexane-1,4-diamine]	31%	0.128 ± 0.04 µM	29%	52%	38%	10%	0.017 µM				
Cc1cnc(N[C@H]2CC[C@H](O)CC2)nc1-c1cnc2ccc(Nc3cccnc3)cn12 [Compound 106, (1r,4r)-4-((5-Methyl-4-(6-(pyridin-3-ylamino)imidazo [1,2-a]pyridin-3-yl)pyrimidin-2-yl)amino)cyclohexan-1-ol]	43%	0.851 ± 0.048 µM	71%	25%	5%	2%	0.042 µM				
Cc1cnc(N[C@]23C[C@@]4(C)C[C@](C)(C[C@](O)(C4)C2)C3)nc1-c1cnc2ccc(Nc3cccnc3)cn12 [Compound 101, (1s,3R,5S,7r)-3,5-Dimethyl-7-((5-methyl-4-(6-(pyridin-3-ylamino)imidazo[1,2-a]pyridin-3-yl)pyrimidin-2-yl)amino)adamantan-1-ol]	97%	> 10 µM	100%	85%	60%	41%	0.561 µM				
Cc1cnc(N[C@H]2CC[C@H](O)CC2)nc1-c1cnc2ccc(-c3ccccc3)cn12 [Compound 105, (1r,4r)-4-((5-Methyl-4-(6-phenylimidazo[1,2-a]pyridin-3-yl)pyrimidin-2-yl)amino)cyclohexan-1-ol]	93%	0.748 ± 0.063 µM	94%	15%	7%	3%	0.188 µM				
Cc1cnc(N[C@H]2CC[C@H](N)CC2)nc1-c1cnc2cc(Nc3cccnc3)ccn12 [Compound 55, (1r,4r)-N^1-(5-Methyl-4-(7-(pyridin-3-ylamino)imidazo [1,2-a]pyridin-3-yl)pyrimidin-2-yl)cyclohexane-1,4-diamine]	5%	0.558 ± 0.13 µM	2%	8%	24%	5%	0.069 µM				
Cc1cnc(NC2CCC(NCC(F)(F)F)CC2)nc1-c1cnc2ccc(Nc3cncnc3)cn12 (centres unmarked) [Compound 112, N^1-(5-Methyl-4-(6-(pyrimidin-5-ylamino)imidazo[1,2-a]pyridin-3-yl)pyrimidin-2-yl)-N^4-(2,2,2-trifluoroethyl) cyclohexane-1,4-diamine]		2.55 ± 1.7 µM	45%				0.205 µM	> 5 µM	1.73 µM	0.49 µM	> 5 µM

Continued, values first:

remaining activity at 10 µM (CDK4/D1)	GI50 (leukemia cell lines)	remaining activity at 10 µM (CDK6/D3)	remaining activity at 10 µM (CDKs and other kinases [1])	remaining activity at 10 µM (CDKs and other kinases [2])	remaining activity at 10 µM (CDKs and other kinases [3])	Ki (CDK9/T1)	Ki (CDKs and other kinases [1])	Ki (CDKs and other kinases [2])	Ki (CDKs and other kinases [3])	Ki (CDK4/D1; read-out: CDK inhibition, Ki (μM) CDK4D1)	SMILES
17%	0.014 ± 0.007 µM	41%	19%	5%	7%	0.082 µM					Cc1cnc(N[C@H]2CC[C@@H](N)CC2)nc1-c1cnc2ccc(-c3ccccc3)cn12 [Compound 91, (1s,4s)-N^1-(5-Methyl-4-(6-phenylimidazo[1,2-a]pyridin-3-yl)pyrimidin-2-yl)cyclohexane-1,4-diamine]
4%	< 0.001 µM	4%	1%	3%	2%	0.003 µM					N[C@H]1CC[C@H](Nc2ncc(F)c(-c3cnc4ccc(Nc5cccc(F)c5)cn34)n2)CC1 [Compound 25, (1r,4r)-N^1-(5-Fluoro-4-(6-((3-fluorophenyl)amino)imidazo[1,2-a]pyridin-3-yl)pyrimidin-2-yl) cyclohexane-1,4-diamine]
30%	0.005 ± 0.001 µM	72%				0.014 µM	0.038 µM	0.88 µM	0.73 µM		N[C@H]1CC[C@H](Nc2ncc(Cl)c(-c3cnc4ccc(-c5ncccc5F)cn34)n2)CC1 [Compound 40, (1r,4r)-N^1-(5-Chloro-4-(6-(3-fluoropyridin-2-yl)imidazo [1,2-a]pyridin-3-yl)pyrimidin-2-yl)cyclohexane-1,4-diamine]
17%	0.017 ± 0.006 µM	39%	13%	67%	49%	0.12 µM					Cc1cnc(N[C@H]2CC[C@H](N)CC2)nc1-c1cnc2ccc(-c3ncccc3F)cn12 [Compound 30, (1r,4r)-N^1-(4-(6-(3-Fluoropyridin-2-yl)imidazo[1,2-a]pyridin-3-yl)-5-methylpyrimidin-2-yl)cyclohexane-1,4-diamine]
4%	0.003 ± 0.001 µM	16%		5%	2%	0.004 µM	0.075 µM				N[C@H]1CC[C@H](Nc2ncc(F)c(-c3cnc4ccc(-c5ccc(CN6CCOCC6)cc5)cn34)n2)CC1 [Compound 47, (1r,4r)-N^1-(5-Fluoro-4-(6-(4-(morpholinomethyl)phenyl)imidazo[1,2-a]pyridin-3-yl)pyrimidin-2-yl)cyclohexane-1,4-diamine]
20%	0.054 ± 0.015 µM	99%				0.018 µM	0.15 µM	0.82 µM	0.22 µM		COc1ccc(-c2ccc3ncc(-c4nc(N[C@H]5CC[C@H](N)CC5)ncc4Cl)n3c2)cc1 [Compound 82, (1r,4r)-N^1-(5-Chloro-4-(6-(4-methoxyphenyl)imidazo [1,2-a]pyridin-3-yl)pyrimidin-2-yl)cyclohexane-1,4-diamine]
